Results as given in patent US8952192B2, “Phosphorylated and branched dihydroxy-pentane-dione (DPD) analogs as quorum sensing inhibitors in bacteria” (University of Maryland, College Park, priority 2011, dated 2015).
pIC50: −log10 of the molar value. Entries after “also recorded” stand apart in the source; their conditions may differ. Like-named read-outs stand apart in the source and are kept apart here.

Tests used:
[1] = system: lsr expression in E. coli (lsr-lacZ reporter strains); assay: QS response (lsr expression): AI-2 dependent β-galactosidase production, Miller assay; format: cell-based, Escherichia coli
Protocol: The panel of C1-alkyl analogs was screened to identify QS modulators in the enteric bacteria E. coli and S. typhimurium. Transcription of the QS associated lsr operon, by using lsr-lacZ reporter strains (Table 2) which produce β-galactosidase in response to added AI-2 was monitored. In order to first establish if the analogs were agonists or antagonists in the QS circuit, the analogs were incubated with E. coli LW7 pLW11 and S. typhimurium MET715 (FIG. 19a-b) both of which are luxS^−. None of the analogs, except ethyl-DPD behaved as agonists for lsr expression. Previous studies investigating AI-2 antagonism in P. aeruginosa or in S. typhimurium were carried out using chemically synthesized AI-2 added to luxS^− cells. […] The same trends were obtained by adding a 1:1 ratio of enzymatically synthesized AI-2 and DPD analogs to the luxS^− strains E. coli LW7 pLW11 and S. typhimurium MET715 (FIG. 11a-b). None of the tested DPD analogs were bacteriocidal or bacteriostatic as the OD600 values of E. coli ZK126 pLW11 and S. typhimurium MET708 in the presence and absence of the analogs were similar (FIG. 10). Though the QS circuitry of the enteric organisms, E. coli and S. typhimurium are homologous they respond differently to the DPD analogs. The E. coli QS circuitry is susceptible to being silenced by a variety of DPD analogs of different shapes and sizes whereas in S. typhimurium, only a handful of DPD analogs could antagonize the action of AI-2. […] Isobutyl-DPD emerged as an effective and non-species-specific quencher; causing significant lsr expression knockdowns in both E. coli and S. typhimurium.
The QS response indicated by lsr gene expression was analyzed in pure culture studies by culturing E. coli LW7 pLW11, E. coli ZK126 pLW11 and S. typhimurium MET708, S. typhimurium MET715 overnight in LB medium supplemented with appropriate antibiotics as stated previously. These cells were then diluted into fresh LB medium (with antibiotics) and grown to an OD600 of 0.8-1.0 at 30° C., 250 rpm. Cells were then collected by centrifugation at 10,000×g for 10 minutes, and resuspended in 10 mM phosphate buffer. AI-2 (20 μM) and the respective analog (20 μM) were added to the E. coli or S. typhimurium suspension for 2 hours at 37° C. AI-2 dependent β-galactosidase production was quantified by the Miller assay.
The QS response indicated by lsr gene expression was analyzed in pure culture studies by culturing E. coli LW7 pLW11 and S. typhimurium MET715 overnight at 30° C. in LB medium supplemented with appropriate antibiotics as stated previously. These cells were then diluted into fresh LB medium (with antibiotics) and grown to an OD600 of 0.4-0.8 at 37° C., 250 rpm. Cells were then collected by centrifugation at 10,000×g for 10 min and resuspended in 10 mM phosphate buffer. AI-2 (20 μM) and the respective analog (20 μM) were added to the E. coli or S. typhimurium suspension for 2 h at 37° C. AI-2 dependent β-galactosidase production was quantified by the Miller assay.
The QS response indicated by lsr gene expression was analyzed in pure culture studies by culturing E. coli LW7 pLW11, E. coli ZK126 pLW11 and S. typhimurium MET708, S. typhimurium MET715 overnight in LB medium individually supplemented with appropriate antibiotics, as specified above. These cells were diluted into fresh LB medium (with antibiotics) and grown to an OD600 of 0.8-1.0 at 30° C., 250 rpm. Cells were collected by centrifugation at 10,000×g for 10 minutes, and resuspended in 10 mM phosphate buffer. AI-2 (20 μM) and the respective analog (20 μM) were added to the E. coli or S. typhimurium suspension for 2 hours at 37° C. AI-2 dependent β-galactosidase production was quantified by the Miller assay.

[2] = system: pyocyanin production in P. aeruginosa PAO1; assay: QS response (pyocyanin production); format: cell-based; settings: pure culture P. aeruginosa PAO1, DPD analogs (100 μM)
Protocol: Identifying Modulators of P. aeruginosa QS. DPD analogs (100 μM) were screened for activity in P. aeruginosa PAO1 by monitoring pyocyanin production (FIG. 34b and FIG. 38).
The cells were grown with the analog at 3 mL total volume in 50 mL flasks in LB medium, with continuous shaking. Between 22-24 h, when the cells turned green after pyocyanin secretion, the pigment was extracted. The pyocyanin quantification assay was conducted as described. 2 mL chloroform was added to the 3 mL culture and pipetted up and down. 1 mL of the chloroform was transferred to a separate tube and the pyocyanin was re-extracted into 200 μL of 0.2 M HCl. The absorbance of the solution was measured at OD 520 nm. To calculate the concentration of pyocyanin extracted as μg/mL, the OD at 520 nm was multiplied by 17.07.

[3] = system: E. coli W3110 pCT6 dsRED; assay: Tri-species synthetic ecosystem (E. coli, S. typhimurium, P. aeruginosa): AI-2 mediated dsRED expression; format: cell-based; settings: tri-species culture, 40 μM analog, no exogenous AI-2, 24 h
Protocol: (§1) Effect of analogs in a tri-species synthetic ecosystem. […] Isobutyl-DPD (40 μM) and phenyl-DPD (40 μM) were added to a tri-species synthetic ecosystem created by culturing E. coli, S. typhimurium and P. aeruginosa in the same tubes. In order to differentiate and monitor the QS response from each organism, different and orthogonal reporter strains were used; in E. coli, AI-2 mediated dsRED expression, in S. typhimurium, AI-2 mediated β-galactosidase production; and in P. aeruginosa effects of AI-2 were examined for pyocyanin production.
(§2) S. typhimurium MET708, P. aeruginosa PAO1 and E. coli W3110 pCT6 dsRED were each cultured separately overnight in LB medium supplemented with the appropriate antibiotic. P. aeruginosa PAO1, S. typhimurium MET708 and E. coli W3110 pCT6 dsRED were diluted (25 μL:2.5 μL:100 μL) of the overnight culture respectively, into a single 2 mL final volume of fresh LB medium without antibiotics. […] The S. typhimurium lacZ (β-galactosidase) activity was measured after 4 h. The E. coli response was determined after 24 h, by fixing the cells with 1:1 cold 4% paraformaldehyde and using flow cytometric analysis. Samples were analyzed by flow cytometry (FACS Canto II, BD 394 Biosciences), with 30,000 gated events analyzed per sample. […]

[4] = system: S. typhimurium MET708; assay: Tri-species synthetic ecosystem (E. coli, S. typhimurium, P. aeruginosa): AI-2 mediated β-galactosidase production; format: cell-based; settings: tri-species culture, 40 μM analog, no exogenous AI-2, 4 h
Protocol: as §1, §2

[5] = system: E. coli; assay: DPD analogs and representative bacterial species affected (Table 1); format: cell-based; design: key: x: DPD Analogs and representative bacterial species affected

| Structure (SMILES) | inhibition of AI-2-mediated lsr expression (β-galactosidase), in words ([1]; E. coli LW7 pLW11 (luxS−), 20 μM AI-2 (DPD) + 20 μM analog) | pIC50 ([1]; Escherichia coli, read-out: IC50 (lsr expression in E. coli)) | inhibition of pyocyanin production [2] | QS inhibition in E. coli (dsRED expression) [3] | QS inhibition in S. typhimurium (β-galactosidase production) [4] | effect on native lsr expression (QS response) ([1]; E. coli ZK126 pLW11 (luxS+), cells produce their own AI-2) | IC50 (lsr expression in E. coli), in words ([1]; Example 6) | IC50 ([1]; concentration reducing lsr expression (β-galactosidase production) to 50% in the presence of 20 μM exogenously added synthetic DPD, read-out: IC50 of analog (nM) to inhibit QS in E. coli) | bacterial species affected: E. coli [5] |
| --- | --- | --- | --- | --- | --- | --- | --- | --- | --- |
| O=C(C(=O)C(O)CO)c1ccccc1 (stereo not drawn) [Phenyl-DPD, Phenyl DPD] | no | < 4.40 | some inhibition | largely ineffective | largely ineffective | – | – | – | – |
| CC(C)CC(=O)C(=O)[C@@H](O)CO [Isobutyl-DPD, isobutyl-DPD] | – | – | lack of inhibitory effects | inhibit all three species | inhibit all three species | significant knocked down; also recorded: potent QS “quencher” | nanomolar range | 54 nM | x |
